Source: the supplement of paper PMC10307832

Legend:
Assay in all cases: relative viability (nuclei count vs DMSO), 5 days (fraction); higher = more cells survive
[1] = compound: Cc1ccccc1C(C(=O)NC1CCCCC1)N(C(=O)Cn1ccnc1C)c1cccc(F)c1 [IDH-C35] + COc1cccc2cc(-c3nc([C@H]4CC[C@H](C(=O)O)CC4)n4ncnc(N)c34)[nH]c12 [OSI-027] (partner 0.5 µM)
Method in brief: (§1)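 For relative viability, nuclei counts in treated wells were divided by those in vehicle wells. Lung cancer cell lines had been pin-tool dosed in 1536-well plates the day after seeding and cultured for 5 days, then fixed and stained in one step (final 0.05% Triton X-100, 1% formaldehyde, 1 ug/ml Hoechst) and imaged at 4×. Doses were one drug alone or a fixed anchor-drug dose plus five library-drug doses (not always all listed) in √10 steps, and values are duplicate-plate medians.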

[2] = compound: Cc1ccccc1C(C(=O)NC1CCCCC1)N(C(=O)Cn1ccnc1C)c1cccc(F)c1 [IDH-C35] + O=C(CCCCCCC(=O)Nc1ccccc1)NO [Vorinostat] (partner 1 µM)
Method in brief: as §1

[3] = compound: Cc1ccccc1C(C(=O)NC1CCCCC1)N(C(=O)Cn1ccnc1C)c1cccc(F)c1 [IDH-C35] + Cc1nc(NC(=O)N2CCC[C@H]2C(N)=O)sc1-c1ccnc(C(C)(C)C(F)(F)F)c1 [Alpelisib] (partner 2 µM)
Method in brief: as §1

[4] = compound: Cc1ccccc1C(C(=O)NC1CCCCC1)N(C(=O)Cn1ccnc1C)c1cccc(F)c1 [IDH-C35] + C[C@]1(O)C[C@@H](c2nc(-c3ccc4ccc(-c5ccccc5)nc4c3)c3c(N)nccn32)C1 [Linsitinib] (partner 1 µM)
Method in brief: as §1

Row | Cell Line | relative viability ([1]; first compound 0.08 µM) | relative viability ([1]; first compound 0.253 µM) | relative viability ([1]; first compound 0.8 µM) | relative viability ([1]; first compound 2.53 µM) | relative viability ([1]; first compound 8 µM) | relative viability ([2]; first compound 0.08 µM) | relative viability ([2]; first compound 0.253 µM) | relative viability ([2]; first compound 0.8 µM) | relative viability ([2]; first compound 2.53 µM) | relative viability ([2]; first compound 8 µM) | relative viability ([3]; first compound 0.08 µM) | relative viability ([3]; first compound 0.253 µM) | relative viability ([3]; first compound 0.8 µM) | relative viability ([3]; first compound 2.53 µM) | relative viability ([3]; first compound 8 µM) | relative viability ([4]; first compound 0.08 µM) | relative viability ([4]; first compound 0.253 µM) | relative viability ([4]; first compound 0.8 µM) | relative viability ([4]; first compound 2.53 µM) | relative viability ([4]; first compound 8 µM)
1 | NCI-H522 | 0.784 | 0.658 | 0.74 | 0.669 | 0.674 | 0.953 | 1.12 | 0.896 | 0.872 | 0.883 |  |  |  |  |  |  |  |  |  | 
2 | HCC-15 | 0.632 | 0.656 | 0.614 |  | 0.604 | 0.796 | 0.857 | 0.877 |  | 0.707 | 0.904 | 0.844 | 0.822 | 0.854 | 0.852 | 0.866 | 0.828 | 0.788 | 0.835 | 0.764
3 | A-427 | 0.477 | 0.49 | 0.463 | 0.471 | 0.448 | 0.868 | 0.796 | 0.848 | 0.901 | 0.856 | 1.06 | 1.04 | 1.04 | 1.07 | 1.1 | 1.13 | 1.17 | 1.07 | 1.1 | 1.18
4 | NCI-H2228 | 0.729 | 0.687 | 0.55 | 0.586 | 0.535 | 0.64 | 0.632 | 0.563 | 0.754 | 0.648 | 0.744 | 0.722 | 0.735 | 0.779 | 0.74 | 0.596 | 0.496 | 0.629 | 0.668 | 0.749
5 | NCI-H1734 | 0.643 | 0.621 | 0.564 | 0.6 | 0.597 | 0.712 | 0.846 | 0.83 | 0.826 | 0.815 | 0.764 | 0.694 | 0.72 | 0.641 | 0.648 | 0.891 | 0.862 | 0.839 | 0.772 | 0.833
6 | PC-14 | 0.956 | 0.798 | 0.755 | 0.837 | 0.711 | 0.749 | 0.81 | 0.748 | 0.76 | 0.649 | 1.02 | 0.956 | 0.959 | 0.927 | 0.758 | 0.967 | 0.939 | 0.938 | 0.95 | 0.862
7 | NCI-H1915 | 0.645 | 0.602 | 0.62 | 0.597 | 0.56 | 0.499 | 0.52 | 0.488 | 0.451 | 0.574 | 1.08 | 1.07 | 1.04 | 1.05 | 1.04 | 1.13 | 1.12 | 1.1 | 1.07 | 1.09
8 | NCI-H1666 | 0.828 | 0.81 | 0.865 | 0.845 | 0.841 | 1.04 | 0.997 | 1.08 | 1.04 | 0.971 | 0.974 | 0.951 | 0.955 | 0.986 | 0.911 | 0.775 | 0.79 | 0.888 | 0.904 | 0.941
9 | HCC-366 | 0.968 | 0.955 | 0.806 |  | 0.785 | 0.49 | 0.351 | 0.321 | 0.371 | 0.404 | 0.476 | 0.311 | 0.387 | 0.403 | 0.352 | 0.619 | 0.647 | 0.553 | 0.601 | 0.606
10 | SK-MES-1 | 0.634 | 0.598 | 0.604 | 0.597 | 0.508 | 1.18 | 1.08 | 1.04 | 1.2 | 1.02 | 1.02 | 1.01 | 0.873 | 0.887 | 0.833 | 1.15 | 0.986 | 1.05 | 0.957 | 0.99
11 | SW 1573 | 0.779 | 0.798 | 0.648 | 0.763 | 0.753 | 0.859 | 0.851 | 0.7 | 0.588 | 0.666 | 0.745 | 0.699 | 0.685 | 0.692 | 0.754 | 0.78 | 0.752 | 0.832 | 0.821 | 0.678
12 | NCI-H661 | 0.756 | 0.68 | 0.725 | 0.695 | 0.746 | 0.753 | 0.816 | 0.778 | 0.756 | 0.721 | 0.589 | 0.852 | 0.529 | 0.689 | 0.711 | 0.625 | 0.54 | 0.51 | 0.54 | 0.644
13 | PC-3 [JPC-3] | 0.767 | 0.74 | 0.747 | 0.809 | 0.747 | 0.748 | 0.815 | 0.768 | 0.988 | 0.814 | 1.08 | 1.04 | 0.988 | 1.08 | 1.04 | 0.939 | 0.985 | 0.96 | 0.969 | 0.936
14 | NCI-H1623 | 0.45 | 0.421 | 0.394 | 0.435 | 0.423 |  |  |  |  |  |  |  |  |  |  |  |  |  |  | 
15 | Calu-6 |  |  |  |  |  |  |  |  |  |  | 1 | 0.973 | 0.955 | 0.97 | 1.05 | 0.993 | 0.928 | 0.961 | 0.932 | 0.88
16 | LC-2-ad | 0.9 | 0.908 | 0.806 |  | 0.899 | 0.694 | 0.701 | 0.67 | 0.632 | 0.677 | 0.888 | 0.815 | 0.834 | 0.894 | 0.921 | 0.867 | 0.829 | 0.774 | 0.875 | 0.886
17 | CAL-12T | 0.642 | 0.759 | 0.667 | 0.704 | 0.489 | 0.69 | 0.947 | 0.815 | 0.882 | 0.791 | 1.26 | 1.26 | 1.11 | 1.14 | 1.1 | 0.841 | 0.826 | 0.779 | 0.733 | 0.826
18 | RERF-LC-KJ | 0.562 | 0.631 | 0.643 | 0.614 | 0.597 | 0.655 | 0.636 | 0.698 | 0.718 | 0.754 | 0.824 | 0.827 | 0.853 | 0.73 | 0.886 | 0.873 | 0.861 | 0.871 | 0.906 | 0.904
